Values quoted from earlier work as cited in article PMC8481536, “Wells–Dawson phosphotungstates as mushroom tyrosinase inhibitors: a speciation study” (Scientific Reports, 2021).

Molecular target: T1, AbPPO4 (Agaricus bisporus, UniProt C7FF05, S179N/V121A)
T1 construct: GST (glutathione-S-transferase) (N, cleaved yes); made in house; host or cells: E. coli BL21(DE3)
Conditions: cited from earlier work

T1 sequence (C7FF05 1-383 V121A/S179N): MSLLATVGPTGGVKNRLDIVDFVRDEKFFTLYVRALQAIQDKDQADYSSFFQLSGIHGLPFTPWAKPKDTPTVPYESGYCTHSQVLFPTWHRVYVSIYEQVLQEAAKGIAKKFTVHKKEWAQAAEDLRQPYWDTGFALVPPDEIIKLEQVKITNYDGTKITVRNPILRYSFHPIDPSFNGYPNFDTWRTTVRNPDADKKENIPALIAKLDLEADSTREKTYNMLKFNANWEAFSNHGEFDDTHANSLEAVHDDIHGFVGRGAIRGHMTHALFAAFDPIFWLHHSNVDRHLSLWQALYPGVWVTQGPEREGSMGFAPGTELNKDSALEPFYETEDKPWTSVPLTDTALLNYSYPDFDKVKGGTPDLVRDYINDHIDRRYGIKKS

SMILES: N[C@@H](Cc1ccc(O)c(O)c1)C(=O)O [L-DOPA, L-3,4−dihydroxyphenylalanine]
- Km: 26.1 mM
